Values joined by “and” are separate entries in the source; they are usually repeats but may differ in a detail not shown here. Equal entries are not always repeated.

A short description of one data set: Antipyretic effect. The data set is classed as in vivo, mice. To be noted: CMX-020 Injectable Solution. As to the method:
CMX-020 Injectable Solution may also be given to patients during surgery or dental procedures to relieve pain and as an adjunct to an anaesthetic.
Recordings of body temperature in male mice (30 grams) were achieved using a mouse rectal temperature probe. Baseline was recorded twice for 10 minutes at intervals of 2 minutes with a 15 minute span of no recording.

Data set [1] can be described thus: Analgesic potency comparison with natural EETs and AM404. The settings on record: in vivo. The source says: Chemically, it is close structural analog of a set of lipid mediators derived from arachidonic acid that the body uses to control pain.
Another data set has as its system GABA/GABAA. The experiment in a line: Cerep BioPrint dependence and addiction panel. The format is binding.
The target of another data set is T1, Serotonin/5-HT1A (Homo sapiens, UniProt P08908).
T1 construct: Cerep (contract screen)
T1 sequence (P08908 whole entry): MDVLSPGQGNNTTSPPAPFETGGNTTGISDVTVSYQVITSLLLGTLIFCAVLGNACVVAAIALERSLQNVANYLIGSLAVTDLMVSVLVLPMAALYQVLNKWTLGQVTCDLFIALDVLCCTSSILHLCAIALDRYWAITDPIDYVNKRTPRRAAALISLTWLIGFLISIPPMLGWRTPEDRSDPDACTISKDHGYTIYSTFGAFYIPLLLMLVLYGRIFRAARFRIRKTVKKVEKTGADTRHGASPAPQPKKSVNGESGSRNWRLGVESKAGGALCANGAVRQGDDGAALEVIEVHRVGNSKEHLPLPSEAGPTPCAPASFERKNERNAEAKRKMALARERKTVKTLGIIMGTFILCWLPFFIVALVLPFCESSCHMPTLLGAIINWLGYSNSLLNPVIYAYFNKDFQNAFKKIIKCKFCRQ
Description: Cerep BioPrint dependence and addiction panel. The data set is classed as binding.

In another data set the target is Dopamine/D3 (Homo sapiens, UniProt P35462). The experiment in a line: Cerep BioPrint dependence and addiction panel. The format is binding.
Sequence of Dopamine/D3 (P35462 whole entry): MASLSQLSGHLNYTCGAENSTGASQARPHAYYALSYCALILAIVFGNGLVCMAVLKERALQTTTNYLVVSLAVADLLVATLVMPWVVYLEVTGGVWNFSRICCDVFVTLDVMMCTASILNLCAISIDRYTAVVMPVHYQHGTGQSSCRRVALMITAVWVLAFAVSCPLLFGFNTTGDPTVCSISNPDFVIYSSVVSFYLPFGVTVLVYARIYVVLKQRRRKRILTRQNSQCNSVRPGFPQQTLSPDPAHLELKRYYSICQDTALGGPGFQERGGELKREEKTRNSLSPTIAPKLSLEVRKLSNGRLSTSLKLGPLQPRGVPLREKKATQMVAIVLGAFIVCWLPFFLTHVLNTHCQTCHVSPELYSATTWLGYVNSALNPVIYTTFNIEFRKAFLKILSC
The next data set concerns the target T2, Adenosine/A2A (Homo sapiens, UniProt P29274).
T2 construct: Cerep (contract screen)
Description: Cerep BioPrint dependence and addiction panel. The format is binding.

The target of the next data set is T3, A3 agonist-Adenosine A3 (Homo sapiens, UniProt P0DMS8).
T3 construct: Cerep (contract screen)
T3 sequence (P0DMS8 whole entry): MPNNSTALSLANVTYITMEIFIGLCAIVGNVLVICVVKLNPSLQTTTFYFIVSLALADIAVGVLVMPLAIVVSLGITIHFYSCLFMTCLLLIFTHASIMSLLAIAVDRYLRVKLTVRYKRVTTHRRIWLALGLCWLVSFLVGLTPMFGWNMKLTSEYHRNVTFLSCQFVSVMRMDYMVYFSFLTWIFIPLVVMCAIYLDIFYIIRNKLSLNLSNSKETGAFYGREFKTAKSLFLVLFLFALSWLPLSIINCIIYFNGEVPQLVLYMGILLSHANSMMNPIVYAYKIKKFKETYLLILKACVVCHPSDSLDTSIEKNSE
Description: Cerep BioPrint receptor binding.

A short description of data set [2]: Intravenous analgesia: onset and duration of effect.
The next data set has as its target Dopamine/D1 (Homo sapiens, UniProt P21728). The experiment in a line: Cerep BioPrint dependence and addiction panel. The data set is classed as binding.
The target of the next data set is T4, Steroid nuclear/GR (Homo sapiens, UniProt P04150).
T4 construct: Cerep (contract screening panel)
T4 sequence (P04150 whole entry): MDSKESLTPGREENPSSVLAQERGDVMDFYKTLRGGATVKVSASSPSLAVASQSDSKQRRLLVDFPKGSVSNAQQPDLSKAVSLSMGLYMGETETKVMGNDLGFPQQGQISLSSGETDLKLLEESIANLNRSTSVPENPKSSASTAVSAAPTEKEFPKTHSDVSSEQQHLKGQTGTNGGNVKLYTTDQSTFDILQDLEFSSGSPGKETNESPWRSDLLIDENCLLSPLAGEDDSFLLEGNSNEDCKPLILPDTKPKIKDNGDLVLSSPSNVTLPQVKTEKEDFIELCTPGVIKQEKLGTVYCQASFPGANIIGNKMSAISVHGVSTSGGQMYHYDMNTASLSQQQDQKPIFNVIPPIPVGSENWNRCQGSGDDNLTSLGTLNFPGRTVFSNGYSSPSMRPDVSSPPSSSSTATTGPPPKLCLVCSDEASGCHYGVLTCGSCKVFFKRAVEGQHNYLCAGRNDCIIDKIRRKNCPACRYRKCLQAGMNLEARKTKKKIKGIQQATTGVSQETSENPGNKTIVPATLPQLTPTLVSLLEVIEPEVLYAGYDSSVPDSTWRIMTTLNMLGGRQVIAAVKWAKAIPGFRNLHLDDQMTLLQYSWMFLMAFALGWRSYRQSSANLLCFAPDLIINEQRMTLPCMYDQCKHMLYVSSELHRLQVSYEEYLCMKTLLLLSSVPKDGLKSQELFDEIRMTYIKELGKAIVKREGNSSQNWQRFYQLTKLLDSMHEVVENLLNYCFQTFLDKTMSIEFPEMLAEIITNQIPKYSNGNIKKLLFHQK
The experiment in a line: Cerep BioPrint dependence and addiction panel. The data set is classed as binding.

The nature of data set [3]: LC/MS pharmacokinetics of CMX-020 in mice (plasma, brain, liver). The settings on record: 15 min timepoint, 10 mg/kg iv, n=2 individual values.
Another data set concerns the target Dopamine/D2S (Homo sapiens, UniProt P14416). Description: Cerep BioPrint dependence and addiction panel. The data set is classed as binding.
A further data set deals with T5, Cholecystokinin/CCK2 (Homo sapiens, UniProt P32239).
T5 construct: Cerep (contract screen)
T5 sequence (P32239 whole entry): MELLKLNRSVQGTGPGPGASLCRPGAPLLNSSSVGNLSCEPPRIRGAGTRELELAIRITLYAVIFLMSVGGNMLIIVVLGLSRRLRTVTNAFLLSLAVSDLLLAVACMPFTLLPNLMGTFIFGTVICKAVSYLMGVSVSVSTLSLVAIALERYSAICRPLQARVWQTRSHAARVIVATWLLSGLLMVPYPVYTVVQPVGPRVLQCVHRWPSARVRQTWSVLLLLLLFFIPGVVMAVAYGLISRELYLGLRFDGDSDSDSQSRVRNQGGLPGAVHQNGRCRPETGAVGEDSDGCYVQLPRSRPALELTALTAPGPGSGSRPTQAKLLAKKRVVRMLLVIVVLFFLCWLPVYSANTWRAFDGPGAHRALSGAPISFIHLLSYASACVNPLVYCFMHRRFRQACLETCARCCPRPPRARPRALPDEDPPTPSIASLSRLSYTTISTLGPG
Description: Cerep BioPrint dependence and addiction panel. The data set is classed as binding.

A further data set deals with T6, Opioid/mu(MOP) (Homo sapiens, UniProt P35372).
T6 construct: Cerep (contract screening panel)
T6 sequence (P35372 whole entry): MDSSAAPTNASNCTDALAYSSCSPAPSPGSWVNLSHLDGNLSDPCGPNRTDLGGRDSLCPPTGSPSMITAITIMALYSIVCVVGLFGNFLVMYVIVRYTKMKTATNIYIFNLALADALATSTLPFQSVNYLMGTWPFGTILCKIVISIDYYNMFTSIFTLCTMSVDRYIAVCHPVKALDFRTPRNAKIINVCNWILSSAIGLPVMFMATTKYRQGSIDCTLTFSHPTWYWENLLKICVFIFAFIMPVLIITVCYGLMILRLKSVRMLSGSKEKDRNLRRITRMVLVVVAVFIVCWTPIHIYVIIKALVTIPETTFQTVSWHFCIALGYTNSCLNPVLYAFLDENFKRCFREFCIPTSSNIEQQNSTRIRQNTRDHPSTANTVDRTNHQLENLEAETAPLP
The experiment in a line: Cerep BioPrint dependence and addiction panel. The format is binding.

Sequence of Dopamine/D1 (P21728 whole entry): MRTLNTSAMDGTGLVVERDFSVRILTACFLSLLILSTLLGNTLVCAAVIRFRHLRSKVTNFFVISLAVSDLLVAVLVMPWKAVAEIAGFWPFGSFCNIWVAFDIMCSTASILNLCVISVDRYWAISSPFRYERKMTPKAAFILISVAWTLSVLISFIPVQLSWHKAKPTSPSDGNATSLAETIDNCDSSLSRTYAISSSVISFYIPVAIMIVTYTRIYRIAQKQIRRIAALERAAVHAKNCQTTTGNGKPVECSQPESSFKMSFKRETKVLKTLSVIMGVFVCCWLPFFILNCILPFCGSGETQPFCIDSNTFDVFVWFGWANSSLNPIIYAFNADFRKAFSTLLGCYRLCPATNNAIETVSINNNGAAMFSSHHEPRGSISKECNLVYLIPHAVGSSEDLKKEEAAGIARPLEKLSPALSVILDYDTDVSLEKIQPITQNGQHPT
Sequence of Dopamine/D2S (P14416 other isoform, or with tags, fused parts or gaps): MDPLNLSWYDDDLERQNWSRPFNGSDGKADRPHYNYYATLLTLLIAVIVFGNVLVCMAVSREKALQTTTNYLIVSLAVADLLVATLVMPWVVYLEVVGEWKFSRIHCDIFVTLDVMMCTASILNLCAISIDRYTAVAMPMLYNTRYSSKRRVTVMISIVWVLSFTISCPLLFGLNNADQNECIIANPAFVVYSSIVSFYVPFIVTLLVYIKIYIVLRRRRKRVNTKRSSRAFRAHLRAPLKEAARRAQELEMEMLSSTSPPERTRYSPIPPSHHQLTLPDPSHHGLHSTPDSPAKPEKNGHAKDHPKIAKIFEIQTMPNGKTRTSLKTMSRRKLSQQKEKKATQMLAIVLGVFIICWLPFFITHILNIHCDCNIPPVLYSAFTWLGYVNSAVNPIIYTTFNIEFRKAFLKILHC
T2 sequence (P29274 whole entry): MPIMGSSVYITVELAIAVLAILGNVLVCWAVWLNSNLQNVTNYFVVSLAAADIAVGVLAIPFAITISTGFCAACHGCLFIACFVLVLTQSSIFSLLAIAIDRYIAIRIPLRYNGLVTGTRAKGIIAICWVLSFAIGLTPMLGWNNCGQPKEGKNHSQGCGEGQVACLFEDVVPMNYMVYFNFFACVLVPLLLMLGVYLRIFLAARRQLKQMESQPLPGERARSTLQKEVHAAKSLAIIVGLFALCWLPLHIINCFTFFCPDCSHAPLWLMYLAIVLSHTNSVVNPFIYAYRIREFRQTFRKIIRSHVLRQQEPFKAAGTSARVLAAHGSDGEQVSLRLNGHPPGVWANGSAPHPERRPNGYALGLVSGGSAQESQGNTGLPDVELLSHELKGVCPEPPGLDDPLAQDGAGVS

The inhibition is the drop in the measured response relative to a control, in per cent. The term IC50 denotes the concentration at which inhibition is half-maximal. A lower IC50 goes with greater potency. As to `CCCCCC(=O)N(CC/C=C\C/C=C\C/C=C\CCCC(=O)NC1CC1)C(C)C` [CMX-020], the “duration of the antipyretic effect after ending administration” value in “Antipyretic effect” is “at least 2 hours”. Further, the “time to fever reduction after the start of administration” value in “Antipyretic effect” is at most 30 min. Also, the “analgesic potency in side-by-side comparison with AM404” value in [1] is recorded as “more potent analgesic without the toxic effects”. Further, the “% Inhibition @10 uM” value was 11% in the data set with GABA/GABAA; 26% at Serotonin/5-HT1A; 25% on Dopamine/D3; 7% on Dopamine/D1; 8% on Dopamine/D2S. Also, the inhibition at 10 µM on Adenosine/A2A was 7%; at A3 agonist-Adenosine A3 (A3 agonist-Adenosine A3, 10 uM), 64%; against Steroid nuclear/GR, 9%; at Cholecystokinin/CCK2 it was -27%; against Opioid/mu(MOP) it was 26%. The IC50 on A3 agonist-Adenosine A3 turned out to be 2600 nM. In addition, the “time to peak effect” value in data set [2] (animal tests) is “within minutes”. The “time for which sustained levels of analgesia can be maintained” value in data set [2] (continuous infusion) is at least 48 h. Besides, the “onset of analgesia after intravenous bolus injection or infusion” value in data set [2] (from the start of injection) was in the range of 3 to 5 min. In [2] (intravenous), the “half-time of the blood-brain equilibration” value lay within 1 to 3 min. Also, the “duration of analgesic effect from bolus injection” value in data set [2] (intravenous bolus) was 20 to 30 min and 20 to 25 min. In addition, the “amount present in brain” value in data set [3] came out at 843 ng/g tissue. Besides, the “amount present in liver” value in data set [3] is reported as 211 ng/g tissue.

The values above are taken from patent US9096494B2, “Arachidonic acid analogs and methods for analgesic treatment using same” (priority 2009, dated 2015).
